Patent US5795907A, “Gastin and CCK receptor ligands” (James Black Foundation Limited, priority 1994, dated 1998)

Legend:
CCKB receptor = biological target: T1, CCKB receptor (Mus musculus, UniProt P56481); assay: CCKB receptor radioligand binding assay in mouse cortical membranes ([125I]-CCK8S); details: [125I]-CCK8S 200 pM, 150 min at 21±3°; for Ki: read-out: CCKB pKi (converted)
T1 construct: The cortex was dissected, weighed and homogenised in 40ml ice-cold buffer; tissue Charles River (supplier of the CD1 mice); host or cells: cerebral cortex membranes of male CD1 mice
T1 sequence (P56481 1-453): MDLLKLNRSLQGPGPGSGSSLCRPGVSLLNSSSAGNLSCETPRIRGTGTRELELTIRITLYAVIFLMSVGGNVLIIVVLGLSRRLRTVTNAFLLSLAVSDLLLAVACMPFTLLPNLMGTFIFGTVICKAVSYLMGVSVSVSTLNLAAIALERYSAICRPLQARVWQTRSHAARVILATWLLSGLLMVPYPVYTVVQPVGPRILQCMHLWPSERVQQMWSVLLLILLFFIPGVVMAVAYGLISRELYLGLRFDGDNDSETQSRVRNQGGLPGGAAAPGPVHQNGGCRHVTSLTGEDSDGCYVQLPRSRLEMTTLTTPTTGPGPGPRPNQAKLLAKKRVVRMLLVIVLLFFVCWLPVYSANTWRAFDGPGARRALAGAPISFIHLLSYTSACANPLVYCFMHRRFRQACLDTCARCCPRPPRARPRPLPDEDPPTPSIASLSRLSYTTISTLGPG
Method: The compounds of the examples were tested for binding at the CCKB receptor in mouse cortical membranes by means of a radioligand binding assay. The procedure was as follows:
The whole brains from male mice (CD1 22-25 g; Charles River) were removed and placed in ice-cold buffer (pH7.2 @ 21±3°) of the following composition (mM); 10 HEPES, 130 NaCl, 4.7 KCl, 5 MgCl2, 1 EDTA and containing 0.25g.^-1 bacitracin. The cortex was dissected, weighed and homogenised in 40ml ice-cold buffer using a Teflon-in-glass homogeniser. The homogenate was centrifuged at 39,800g for 20 min at 4°, the supernatant discarded and the pellet resuspended by homogenisation in fresh buffer. The homogenate was recentrifuged (39,800 g; 20 min @ 4°) and the final pellet was resuspended in HEPES buffer to give a tissue concentration of 2 mg.ml^-1 (original wet weight).
The membranes ([…]) were incubated for 150 min at 21±3° in a final volume of 0.5 ml with HEPES buffer containing [^125 I]-CCK8S (0.05 ml; 200 pM NEN 2200 Ci.mmol^-1) and competing compound. Total and non-specific binding of [^125 I]-CCK8S were defined using 0.05 ml of buffer and 0.05 ml of […] L-365,260, respectively. The assay was terminated by rapid filtration through pre-soaked Whatman GF/B filters using a Brandell Cell harvester. The filters were washed (3×3 ml) with ice-cold 50 mM Tris-HCl (pH7.4 @ 4° C.) and bound radioactivity determined by counting (1 min.) in a gamma-counter.

CCKA = biological target: T2, CCKA (Cavia porcellus, UniProt Q63931); assay: CCKA radioligand binding assay in guinea-pig pancreas membranes ([125I]-CCK8(S)); details: PD134,308 present, 150 minutes at 21±3°; for Ki: read-out: CCKA pKi (converted)
T2 construct: The pancreatata were homogenised in 40 ml ice-cold HEPES buffer using a polytron; from tissue; host or cells: pancreas membranes of male Dunkin Hartley guinea-pigs
T2 sequence (Q63931 1-430): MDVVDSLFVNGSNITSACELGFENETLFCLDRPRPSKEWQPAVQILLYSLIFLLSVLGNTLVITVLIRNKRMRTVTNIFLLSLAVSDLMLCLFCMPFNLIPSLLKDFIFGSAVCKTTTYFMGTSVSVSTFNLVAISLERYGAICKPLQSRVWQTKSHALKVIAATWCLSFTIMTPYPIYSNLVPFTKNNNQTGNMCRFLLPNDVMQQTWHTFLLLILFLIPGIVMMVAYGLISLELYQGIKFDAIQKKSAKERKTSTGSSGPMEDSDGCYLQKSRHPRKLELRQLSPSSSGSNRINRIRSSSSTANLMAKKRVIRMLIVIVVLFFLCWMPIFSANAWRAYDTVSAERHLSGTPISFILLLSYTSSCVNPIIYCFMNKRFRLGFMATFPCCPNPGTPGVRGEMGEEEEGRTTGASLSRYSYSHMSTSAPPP
Method: The compounds of the examples were also tested in a CCKA as follows:
The pancreatata were removed from male guinea-pigs (200-300 g; Dunkin Hartley) and placed in ice-cold HEPES buffer (pH 7.2 @ 21 ±3). The pancreatata were homogenised in 40 ml ice-cold HEPES buffer using a polytron (Brinkmann, PT10, setting 10) 4×1 second. The homogenate was centrifuged at 39,800 g for 15 min at 4°. The supernatant was discarded and the pellet re-suspended using a Teflon-in-glass homogeniser in 20 volumes of fresh buffer and re-centrifuged as above.
The final pellet was re-suspended using a Teflon-in-glass homogeniser to a tissue concentration of 1 mg.ml^-1 (original wet weight), and filtered through 500 μm pore-size Nytex mesh.
The membranes (400 μl; containing 0.375 μM PD134,308) are incubated for 150 minutes at 21±3° in a final volume of 0.5 ml with HEPES buffer containing [^125 I]-CCK8 (S) (50 μl; […]) and competing compound. Total and non-specific binding of [^125 I]-CCK8 (S) are defined using 50 μl of buffer and 50 μl of 100 nM L-364,718 respectively. The assay is terminated by rapid filtration through pre-soaked Whatman GF/B filters using a Brandell Cell Harvester. The filters were washed (3×3 ml) with ice-cold 50 mM Tris HCl (pH 7.4 at 4°) and bound radioactivity is determined by counting (1 min) in a gamma counter.

Compound	CCKB pKi (CCKB receptor)	CCKA pKi (CCKA)	Ki (CCKB receptor) [nM]	Ki (CCKA) [nM]
5-(1S-(3,5-diethoxycarbonylphenylaminocarbonyl)-2-phenylethylaminocarbonyl)-6-(1-adamantanemethylaminocarbonyl)-indole and regioisomer with substituents at positions 5 and 6 reversed [Example 66]	5.8	5.0		
Cn1ccc2cc(C(=O)N[C@@H](Cc3ccccc3)C(=O)Nc3cc(C(=O)O)cc(C(=O)O)c3)c(C(=O)NCC34CC5CC(CC(C5)C3)C4)cc21 [Example 36, 5-(1S-(3,5-dicarboxyphenylaminocarbonyl)-2-phenylethylaminocarbonyl)-6-(1-adamantanemethylaminocarbonyl)-N-methyl-indole]			0.398	3160
Cc1nc2cc(C(=O)NCC34CC5CC(CC(C5)C3)C4)c(C(=O)N[C@@H](Cc3ccccc3)C(=O)Nc3cc(C(=O)O)cc(C(=O)O)c3)cc2[nH]1 [Example 111, 5-(1S-(3,5-dicarboxyphenylaminocarbonyl)-2-phenylethylaminocarbonyl)-6-(1-adamantanemethylaminocarbonyl)-2-methylbenzimidazole]			1580	> 10000
O=C(NCC12CC3CC(CC(C3)C1)C2)c1cc(Cl)c(Cl)cc1C(=O)N1CCC[C@@H]1C(=O)O [Example 19, (2R-carboxypyrrolidino-carbonyl)-2-(1-adamantanemethylaminocarbonylmethyl)-4,5-dichlorobenzene]			2000	5010
O=C(NCC12CC3CC(CC(C3)C1)C2)c1cc2cc[nH]c2cc1C(=O)N[C@@H](Cc1ccccc1)C(=O)Nc1cccc(-c2nn[nH]n2)c1 [Example 101, 6-(1S-(3-tetrazolylphenylaminocarbonyl)-2-phenylethylaminocarbonyl)-5-(1-adamantanemethylaminocarbonyl)-indole]			39.8	251
O=C(NCC12CC3CC(CC(C3)C1)C2)c1cc2cc[nH]c2cc1C(=O)N[C@@H](Cc1ccccc1F)C(=O)Nc1cc(-c2nn[nH]n2)cc(-c2nn[nH]n2)c1 [Example 98, 6-(1S-(3,5-ditetrazolylphenylaminocarbonyl)-2-(2-fluorophenyl)ethylaminocarbonyl)-5-(1-adamantanemethylaminocarbonyl)-indole]			3.98	200
5-(1S-(trans3,4-dimethoxycarbonylpyrrolidinocarbonyl)-2-phenylethylaminocarbonyl)-6-(1-adamantanemethylaminocarbonyl)-indole and regioisomer with substituents at positions 5 and 6 reversed [Example 49]	5.6	5.6		
COC(=O)[C@@H]1CCCN1C(=O)c1cc2ccccc2cc1C(=O)NCC12CC3CC(CC(C3)C1)C2 [Example 6, 2-(2S-methoxycarbonylpyrrolidino-carbonyl)-3-(1-adamantanemethylaminocarbonyl)-naphthalene]			1000	2510
O=Cc1cc(C=O)cc(NC(=O)[C@H](Cc2ccccc2)NC(=O)c2cc3[nH]cnc3cc2C(=O)NCC23CC4CC(CC(C4)C2)C3)c1 [Example 120, 5-(1S-(3,5-hydrogencarbonylphenylaminocarbonyl)-2-phenylethylaminocarbonyl)-6-(1-adamantanemethylaminocarbonyl)-benzimidazole]			631	1000
NC(=O)c1cc(NC(=O)[C@H](Cc2ccccc2)NC(=O)c2cc3[nH]cnc3cc2C(=O)NCC23CC4CC(CC(C4)C2)C3)cc(C(N)=O)c1 [Example 117, 5-(1S-(3,5-diaminocarbonylphenylaminocarbonyl)-2-phenylethylaminocarbonyl)-6-(1-adamantanemethylaminocarbonyl)-benzimidazole]			794	1580
